Measurements: patent publication US20130267484A1, “TREATMENT OF RHEUMATOID ARTHRITIS WITH MASITINIB” (AB SCIENCE, priority 2010, published 2013)

Tested on: DMARD-refractory active RA
Experiment: Phase 2a trial of masitinib in DMARD-refractory active RA: efficacy (ACR, ACRn, CRP, DAS28)
Assay type: in vivo, Human
Set-up: ACRn Mean ± SD / ACRn Median: unit not given here
From the text: The main exclusion criteria were patients with: inadequate bone marrow function, defined as an absolute neutrophil count ≦2.5×10^9/litre, and platelets ≦100×10^9/litre; active current infection, history of infection requiring hospitalisation, history of recurrent infections, or treatment with antibiotics within 2 weeks of screening. Treatment wash-out periods observed prior to entry to the study were: a) DMARD use within 4 weeks; b) five half-lives, or wash-out in accordance for a specific drug, whichever is longer; c) any live (attenuated) vaccines taken within 4 weeks; d) use of more than one NSAID or its dosage change within 4 weeks; e) prednisone or equivalent corticosteroid dosage >10 mg/day or any dosage change within 4 weeks; and f) prednisone or equivalent corticosteroid dosage >20 mg administered via intra-articular injection, bolus intramuscular or intravenous treatment within 4 weeks. Other exclusion criteria included any previous use of recombinant interleukin-1 receptor antagonist (IL1-Ra) and patients who were pregnant or nursing.
Efficacy data are presented using descriptive statistics, contrasting initial dosage groups or according to previous DMARD failure. For comparison of groups according to initial dosage on a continuous variable, Student test (with Satterwhaite correction for unequal variance) or Wilcoxon test were used when normality was not rejected or rejected, respectively (normality determined via the Shapiro-Wilk test). For the same comparison on a qualitative variable, Chi-square or Fisher Exact test (if the Chi-square hypotheses were not filled) were used. The rate of patients achieving the various ACR response variables after 12 weeks of treatment (remission rate) are presented in terms of percentage and number of patients. Patients were assigned to either 3 or 6 mg/kg/day treatment groups based upon a randomisation schedule generated for packaging and labelling by the Biostatistics Section of AB Science. Individual treatment doses to be administered were supplied in sealed envelopes to be opened by the investigator at time of inclusion. Patients received the treatment from the investigator on an open basis.
Due to the relatively high patient drop-out rate of this study, analysis was conducted on two different datasets: one with an imputation of missing values according to the last observation carried forward (LOCF) methodology and the other in the absence of data imputation, i.e. the observed cases (OC). Analysis for efficacy was performed on a modified Intention-To-Treat (ITT) population and Per Protocol (PP) population. […] The PP population was defined as a subgroup of the ITT population that in addition had presented no major protocol deviations and had completed at least 28 days of treatment exposure.

[1] = Total population (n = 40), ITT population
[2] = W 24, extension phase, ITT population, n = 4
[3] = W 24, extension phase, ITT population, n = 7
[4] = W 36, extension phase, ITT population, n = 5
[5] = W 36, extension phase, ITT population, n = 9
[6] = W 36, extension phase, ITT population, n = 12
[7] = W 48, extension phase, ITT population, n = 6
[8] = W 48, extension phase, ITT population, n = 8
[9] = W 48, extension phase, ITT population, n = 9
[10] = W 60, extension phase, ITT population, n = 7
[11] = W 60, extension phase, ITT population, n = 8

Structure (SMILES): Cc1ccc(NC(=O)c2ccc(CN3CCN(C)CC3)cc2)cc1Nc1nc(-c2cccnc2)cs1 [masitinib, 4-(4-methylpiperazin-1-ylmethyl)-N-[4-methyl-3-(4-pyridin-3ylthiazol-2-ylamino)phenyl]benzamide]
- Non-responders (failed to reach ACR20) after dose augmentation (3 mg/kg/day group, 12 patients augmented at weeks 4 or 8): 42%
- Patients with improved response after dose augmentation (3 mg/kg/day group, 12 patients augmented at weeks 4 or 8, initial 12-week phase): 58%
- Dose response analyses: dose level (6 mg/kg/day): most potent
- Highest response rate for the ACR50 threshold by dose at first response (5/15, dosage not given): 33.3%
- Time to first response ACR20, Mean ± SD [1]: 46.3 ± 22.4 days
- Time to first response ACR20, Median [1]: 35.0 days
- Time to first response ACR20, Min-Max [1]: 28.0 to 105.0 days
- Time to first response ACR50, Mean ± SD [1]: 89.1 ± 58.2 days
- Time to first response ACR50, Median [1]: 84.0 days
- Time to first response ACR50, Min-Max [1]: 28.0 to 217.0 days
- DAS28 <2.6, patients (W 12, ITT population, n = 24): 1 (4.%)
- DAS28 Mean ± SD (W 12, ITT population, n = 24): 4.6 ± 1.3
- DAS28 Median (W 12, ITT population, n = 24): 4.4
- DAS28 Min-Max (W 12, ITT population, n = 24): 0.5-7.0
- DAS28 ≦3.2, patients (W 12, ITT population, n = 24): 1 (4%)
- ACR20, patients reaching level (W 12, ITT population, n = 27): 15 (56%)
- ACR50, patients reaching level (W 12, ITT population, n = 27): 9 (33%)
- ACR70, patients reaching level (W 12, ITT population, n = 27): 3 (11%)
- ACR90, patients reaching level (W 12, ITT population, n = 27): 0 (0%)
- ACRn Mean ± SD (W 12, ITT population, n = 27): 31.6 ± 33.5
- ACRn Median (W 12, ITT population, n = 27): 42.9
- ACRn Min-Max (W 12, ITT population, n = 27): −40.0-87.5
- CRP 0% < Improvement ≦25%, patients (W 12, ITT population, n = 28): 5 (18%)
- CRP 25% < Improvement ≦50%, patients (W 12, ITT population, n = 28): 3 (11%)
- CRP Deterioration, patients (W 12, ITT population, n = 28): 3 (11%)
- CRP Improvement >50%, patients (W 12, ITT population, n = 28): 14 (50%)
- CRP Stable, patients (W 12, ITT population, n = 28): 3 (11%)
- DAS28 <2.6, patients [2]: 0 (0%)
- DAS28 Mean ± SD [2]: 5.2 ± 1.7
- DAS28 Median [2]: 4.9
- DAS28 Min-Max [2]: 3.6-7.5
- DAS28 ≦3.2, patients [2]: 0 (0%)
- ACR20, patients reaching level [3]: 6 (86%)
- ACR50, patients reaching level [3]: 2 (27%)
- ACR70, patients reaching level [3]: 1 (14%)
- ACR90, patients reaching level [3]: 0 (0%)
- ACRn Mean ± SD [3]: 36.0 ± 29.0
- ACRn Median [3]: 40.7
- ACRn Min-Max [3]: −16.7-73.0
- CRP 0% < Improvement ≦25%, patients [3]: 1 (14%)
- CRP 25% < Improvement ≦50%, patients [3]: 0 (0%)
- CRP Deterioration, patients [3]: 0 (0%)
- CRP Improvement >50%, patients [3]: 5 (71%)
- CRP Stable, patients [3]: 1 (14%)
- DAS28 <2.6, patients [4]: 1 (20%)
- DAS28 Mean ± SD [4]: 4.4 ± 1.9
- DAS28 Median [4]: 4.1
- DAS28 Min-Max [4]: 2.3-7.5
- DAS28 ≦3.2, patients [4]: 1 (20%)
- ACR20, patients reaching level [5]: 7 (78%)
- ACR50, patients reaching level [5]: 4 (44%)
- ACR70, patients reaching level [5]: 2 (22%)
- ACR90, patients reaching level [5]: 1 (11%)
- ACRn Mean ± SD [5]: 45.9 ± 32.3
- ACRn Median [5]: 45.5
- ACRn Min-Max [5]: −3.8-93.3
- CRP 0% < Improvement ≦25%, patients [6]: 1 (8%)
- CRP 25% < Improvement ≦50%, patients [6]: 1 (8%)
- CRP Deterioration, patients [6]: 0 (0%)
- CRP Improvement >50%, patients [6]: 9 (75%)
- CRP Stable, patients [6]: 1 (8%)
- DAS28 <2.6, patients [7]: 0 (0%)
- DAS28 Mean ± SD [7]: 4.7 ± 2.1
- DAS28 Median [7]: 4.4
- DAS28 Min-Max [7]: 2.7-8.7
- DAS28 ≦3.2, patients [7]: 2 (33%)
- ACR20, patients reaching level [8]: 5 (63%)
- ACR50, patients reaching level [8]: 3 (38%)
- ACR70, patients reaching level [8]: 1 (13%)
- ACR90, patients reaching level [8]: 0 (0%)
- ACRn Mean ± SD [8]: 30.9 ± 36.7
- ACRn Median [8]: 40.0
- ACRn Min-Max [8]: −20.0-70.9
- CRP 0% < Improvement ≦25%, patients [9]: 1 (11%)
- CRP 25% < Improvement ≦50%, patients [9]: 0 (0%)
- CRP Deterioration, patients [9]: 2 (22%)
- CRP Improvement >50%, patients [9]: 6 (67%)
- CRP Stable, patients [9]: 0 (0%)
- CRP 0% < Improvement ≦25%, patients [10]: 1 (14%)
- CRP 25% < Improvement ≦50%, patients [10]: 3 (43%)
- CRP Deterioration, patients [10]: 0 (0%)
- CRP Improvement >50%, patients [10]: 3 (43%)
- CRP Stable, patients [10]: 0 (0%)
- DAS28 <2.6, patients [10]: 4 (57%)
- DAS28 Mean ± SD [10]: 3.3 ± 1.5
- DAS28 Median [10]: 2.6
- DAS28 Min-Max [10]: 1.7-5.3
- DAS28 ≦3.2, patients [10]: 4 (57%)
- ACR20, patients reaching level [11]: 6 (75%)
- ACR50, patients reaching level [11]: 6 (75%)
- ACR70, patients reaching level [11]: 3 (38%)
- ACR90, patients reaching level [11]: 2 (25%)
- ACRn Mean ± SD [11]: 58.3 ± 31.4
